# Laboratory results as given in patent US20160376659A1, “Breast Cancer Biomarker” (The University of Manchester, priority 2015, published 2016).
# Test system: HBC×22 and HBC×34 tamoxifen-resistant PDXs
# Assay: BCSC activity (MFE, ALDH-positive cells) in tamoxifen-resistant PDXs treated in vivo
# Parameters: species or system mice
# Conditions: RO4929097 10 mg/kg/day oral gavage, 14 days
# Protocol: Fulvestrant (kindly provided by Astrazeneca, 200 mg/kg/week) was administered by subcutaneous injection (0.1 ml/dose) on a weekly basis for fourteen days. […] Xenografts were collected in ice cold DMEM media for live cell assays, histological analysis and RNA and protein extraction. Patient-derived xenograft single cell suspension was obtained using a collagenase-hyaluronidase mixture for digestion (Stem Cell Technologies). […] Primary mammospheres were dissociated and replated in secondary mammosphere suspension culture for a further 7-9 days to measure self-renewal. Patient-derived xenograft cells were cultured for 7-10 days. For cell lines, cells were pre-treated in adherence and then cultured for 5 days in mammosphere culture. Mammosphere formation efficiency (MFE) was calculated by dividing the number of mammospheres formed (≧50 μm) by the original number of single cells seeded (500 cells/cm^2 for primary cells and 200 cells/cm^2 for cell lines) and is expressed as fold change normalised to control or as the mean percentage of MFE (Shaw et al., 2012). Dissociated single cells were suspended in Aldefluor assay buffer containing an ALDH substrate, bodipyaminoacetaldehyde (BAAA) at […], and incubated for 45 min at 37° C. […] Data were acquired on a LSR II (BD) flow cytometer and analysed using the BD FACSDiva™ software.
smiles,measurement,value
CC(C)(C(=O)NCC(F)(F)C(F)(F)F)C(=O)N[C@@H]1C(=O)Nc2ccccc2-c2ccccc21 [RO4929097],enrichment of BCSCs,significantly reduced
